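How tested: cells in 96-well plates exposed to compound for 48 hours at five concentrations. TGI marks complete inhibition of growth.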
Tests used:
Test in all cases: NCI anticancer screen, dose series, 48 h
A549 NSCLC = system: A549 NSCLC
MDA-MB-231 breast = system: MDA-MB-231 breast
IGROV1 ovarian = system: IGROV1 ovarian
NCI/ADR-RES ovarian = system: NCI/ADR-RES ovarian
SF-268 CNS = system: SF-268 CNS
SF-295 CNS = system: SF-295 CNS
HOP-92 NSCLC = system: HOP-92 NSCLC
K-562 leukemia = system: K-562 leukemia
MDA-MB-435 = system: MDA-MB-435
UACC-62 melanoma = system: UACC-62 melanoma
786-0 renal = system: 786-0 renal
SW-620 colon = system: SW-620 colon
NCI-H23 lung = system: NCI-H23 lung
HL-60(TB) leukemia = system: HL-60(TB) leukemia
DU-145 prostate = system: DU-145 prostate
U251 CNS = system: U251 CNS
NCI-H522 lung = system: NCI-H522 lung
HCT-116 colon = system: HCT-116 colon
CCRF-CEM leukemia = system: CCRF-CEM leukemia
OVCAR-5 ovarian = system: OVCAR-5 ovarian
CAKI-1 renal = system: CAKI-1 renal
SN12C renal = system: SN12C renal
HT29 colon = system: HT29 colon
A498 renal = system: A498 renal
SK-MEL-28 melanoma = system: SK-MEL-28 melanoma
MOLT-4 leukemia = system: MOLT-4 leukemia
HCC-2998 colon = system: HCC-2998 colon
OVCAR-8 ovarian = system: OVCAR-8 ovarian
SNB-75 CNS = system: SNB-75 CNS
KM12 colon = system: KM12 colon
MALME-3M melanoma = system: MALME-3M melanoma
T-47D breast = system: T-47D breast
OVCAR-3 ovarian = system: OVCAR-3 ovarian
RPMI-8226 leukemia = system: RPMI-8226 leukemia
SK-MEL-5 melanoma = system: SK-MEL-5 melanoma
ACHN renal = system: ACHN renal
RXF 393 renal = system: RXF 393 renal
LOX IMVI melanoma = system: LOX IMVI melanoma
HOP-62 NSCLC = system: HOP-62 NSCLC
M14 melanoma = system: M14 melanoma
SF-539 CNS = system: SF-539 CNS
HS 578T breast = system: HS 578T breast
MDA-N = system: MDA-N
SNB-19 CNS = system: SNB-19 CNS
EKVX NSCLC = system: EKVX NSCLC
NCI-H460 lung = system: NCI-H460 lung
SR leukemia = system: SR leukemia
UO-31 renal = system: UO-31 renal
HCT-15 colon = system: HCT-15 colon
BT-549 breast = system: BT-549 breast
MCF7 breast = system: MCF7 breast
NCI-H226 lung = system: NCI-H226 lung
TK-10 renal = system: TK-10 renal
UACC-257 melanoma = system: UACC-257 melanoma

CCOC(=O)C1CCCN1C(=O)c1ccccc1Cl (centres undefined)
TGI (A549 NSCLC): > 100 µM | TGI (MDA-MB-231 breast): > 100 µM | TGI (IGROV1 ovarian): > 100 µM | TGI (NCI/ADR-RES ovarian): > 100 µM | TGI (SF-268 CNS): > 100 µM | TGI (SF-295 CNS): > 100 µM | TGI (HOP-92 NSCLC): > 100 µM | TGI (K-562 leukemia): > 100 µM | TGI (MDA-MB-435): > 100 µM | TGI (UACC-62 melanoma): 88.3 µM | TGI (786-0 renal): > 100 µM | TGI (SW-620 colon): > 100 µM | TGI (NCI-H23 lung): > 100 µM | TGI (HL-60(TB) leukemia): > 100 µM | TGI (DU-145 prostate): > 100 µM | TGI (U251 CNS): > 100 µM | TGI (NCI-H522 lung): > 100 µM | TGI (HCT-116 colon): > 100 µM | TGI (CCRF-CEM leukemia): > 100 µM | TGI (OVCAR-5 ovarian): > 100 µM | TGI (CAKI-1 renal): > 100 µM | TGI (SN12C renal): > 100 µM | TGI (HT29 colon): > 100 µM | TGI (A498 renal): > 100 µM | TGI (SK-MEL-28 melanoma): > 100 µM | TGI (MOLT-4 leukemia): > 100 µM | TGI (HCC-2998 colon): > 100 µM | TGI (OVCAR-8 ovarian): > 100 µM | TGI (SNB-75 CNS): > 100 µM | TGI (KM12 colon): > 100 µM | TGI (MALME-3M melanoma): > 100 µM | TGI (T-47D breast): > 100 µM | TGI (OVCAR-3 ovarian): > 100 µM | TGI (RPMI-8226 leukemia): > 100 µM | TGI (SK-MEL-5 melanoma): > 100 µM | TGI (ACHN renal): > 100 µM | TGI (RXF 393 renal): > 100 µM | TGI (LOX IMVI melanoma): > 100 µM | TGI (HOP-62 NSCLC): > 100 µM | TGI (M14 melanoma): > 100 µM | TGI (SF-539 CNS): > 100 µM | TGI (HS 578T breast): > 100 µM | TGI (MDA-N): > 100 µM | TGI (SNB-19 CNS): > 100 µM | TGI (EKVX NSCLC): > 100 µM | TGI (NCI-H460 lung): > 100 µM | TGI (SR leukemia): > 100 µM | TGI (UO-31 renal): > 100 µM | TGI (HCT-15 colon): > 100 µM | TGI (BT-549 breast): > 100 µM | TGI (MCF7 breast): > 100 µM | TGI (NCI-H226 lung): > 100 µM | TGI (TK-10 renal): > 100 µM | TGI (UACC-257 melanoma): > 100 µM
